Experimental data: patent publication US10308644B2, “Heterocyclic compounds as immunomodulators” (Incyte Corporation, priority 2016, dated 2019)

Target: PD-1/PD-L1 (Homo sapiens (Human), UniProt Q9NZQ7)
Assay: PD-1/PD-L1 Homogeneous Time-Resolved Fluorescence (HTRF) Binding Assay
Conditions: recombinant human PD-1 (3 nM) and PD-L1 (10 nM), 25° C., PBS pH 7.4
Outline: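 Fc-tagged human PD-1 (25-167, 3 nM) and His-tagged PD-L1 (19-238, 10 nM) preincubated with inhibitor 40 min in PBS pH 7.4, 0.05% Tween-20, 0.1% BSA, 1% DMSO, 25 °C. Binding detected by HTRF (Eu anti-IgG/APC anti-His, 665/620 nm) after 60 min; IC50 from percent control activity.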

Sequence of PD-1/PD-L1 (Q9NZQ7 19-238): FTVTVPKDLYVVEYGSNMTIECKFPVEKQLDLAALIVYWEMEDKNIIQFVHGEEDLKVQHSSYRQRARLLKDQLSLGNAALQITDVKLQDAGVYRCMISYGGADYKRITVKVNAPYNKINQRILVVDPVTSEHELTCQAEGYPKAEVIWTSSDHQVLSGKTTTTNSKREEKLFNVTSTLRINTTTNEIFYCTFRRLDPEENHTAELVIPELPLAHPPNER

| Structure (SMILES) | IC50 [nM] |
| --- | --- |
| Cc1c(-c2nc3cc(CN4CC[C@@](C)(C(=O)O)C4)cc(C#N)c3o2)cccc1-c1cccc(-c2nc3c(s2)CN(C(=O)CN2CC[C@@H](O)C2)C3)c1C [Example 222] | ≤ 10 |
| Cc1c(-c2nc3cc(CN4CC5(CC(C(=O)O)C5)C4)cc(C#N)c3o2)cccc1-c1cccc(-c2nc3c(s2)CN(C(=O)CN(C)[C@H](C)CO)C3)c1C [Example 231, 2-((7-cyano-2-(3′-(5-(2-(((R)-1-hydroxypropan-2-yl)(methyl)amino)acetyl)-5,6-dihydro-4H-pyrrolo[3,4-d]thiazol-2-yl)-2,2′-dimethylbiphenyl-3-yl)benzo[d]oxazol-5-yl)methyl)-2-azaspiro[3.3]heptane-6-carboxylic acid] | ≤ 10 |
| CCN1CCc2c(nc(C(=O)Nc3cccc(-c4cccc(-c5nc6cc(CN7CC[C@@H](C(=O)O)C7)cc(C#N)c6o5)c4C)c3Cl)n2C)C1 [Example 143, (R)-1-((2-(2′-chloro-3′-(5-ethyl-1-methyl-4,5,6,7-tetrahydro-1H-imidazo[4,5-c]pyridine-2-carboxamido)-2-methyl-[1,1′-biphenyl]-3-yl)-7-cyanobenzo[d]oxazol-5-yl)methyl)pyrrolidine-3-carboxylic acid] | ≤ 10 |
| Cc1c(Nc2nccc3cc(CN4CC[C@@H](C(=O)O)C4)cnc23)cccc1-c1cccc(-c2nc3cc(CN[C@@H](C)CO)cc(C#N)c3o2)c1C [Example 211, (R)-1-((8-(3′-(7-cyano-5-(((S)-1-hydroxypropan-2-ylamino)methyl)benzo[d]oxazol-2-yl)-2,2′-dimethylbiphenyl-3-ylamino)-1,7-naphthyridin-3-yl)methyl)pyrrolidine-3-carboxylic acid] | ≤ 10 |
| Cc1c(-c2nc3cc(CN4CC[C@@H](C(=O)O)C4)cc(Cl)c3o2)cccc1-c1cccc(N2CCC(NC3CC3)CC2)c1Cl [Example 44, (R)-1-((7-chloro-2-(2′-chloro-3′-(4-(cyclopropylamino)piperidin-1-yl)-2-methylbiphenyl-3-yl)benzo[d]oxazol-5-yl)methyl)pyrrolidine-3-carboxylic acid] | ≤ 10 |
| Cc1c(-c2nc3cc(CN4CC[C@@H](C(=O)O)C4)cc(C#N)c3o2)cccc1-c1cccc(Nc2nccc3cc(CN4CC[C@@H](O)C4)cnc23)c1Cl [Example 84, (R)-1-((2-(2′-chloro-3′-(3-(((R)-3-hydroxypyrrolidin-1-yl)methyl)-1,7-naphthyridin-8-ylamino)-2-methylbiphenyl-3-yl)-7-cyanobenzo[d]oxazol-5-yl)methyl)pyrrolidine-3-carboxylic acid] | ≤ 10 |
| Cc1c(Nc2nccc3nccnc23)cccc1-c1cccc(-c2nc3cc(CN4CC[C@@H](C(=O)O)C4)cc(Cl)c3o2)c1C [Example 11, (R)-1-((7-chloro-2-(2,2′-dimethyl-3′-(pyrido[4,3-b]pyrazin-5-ylamino)biphenyl-3-yl)benzo[d]oxazol-5-yl)methyl)pyrrolidine-3-carboxylic acid] | ≤ 10 |
| Cc1c(-c2nc3cc(CN4CC[C@@H](C(=O)O)C4)cc(C#N)c3o2)cccc1-c1cccc(-c2nc3c(s2)CN(C)CC3)c1C [Example 73] | ≤ 10 |
| Cc1c(-c2nc3c(o2)CN(C(=O)CN2CC[C@H](C(=O)O)C2)C3)cccc1-c1cccc(-c2nc3cc(CN4CC[C@@H](O)C4)cc(C#N)c3o2)c1C [Example 131, (S)-1-(2-(2-(3′-(7-cyano-5-(((R)-3-hydroxypyrrolidin-1-yl)methyl)benzo[d]oxazol-2-yl)-2,2′-dimethyl-[1,1′-biphenyl]-3-yl)-4,6-dihydro-5H-pyrrolo[3,4-d]oxazol-5-yl)-2-oxoethyl)pyrrolidine-3-carboxylic acid] | ≤ 10 |
| Cc1c(Nc2ncnc3cc(CN4CCCC4)cnc23)cccc1-c1cccc(-c2nc3cc(CN4CC[C@@H](C(=O)O)C4)cc(C#N)c3o2)c1C [Example 209, (R)-1-((7-cyano-2-(2,2′-dimethyl-3′-(7-(pyrrolidin-1-ylmethyl)pyrido[3,2-d]pyrimidin-4-ylamino)biphenyl-3-yl)benzo[d]oxazol-5-yl)methyl)pyrrolidine-3-carboxylic acid] | ≤ 10 |
| Cc1c(Nc2nccc3cc(CN4CC[C@@H](O)C4)cnc23)cccc1-c1cccc(-c2nc3cc(CN[C@H]4C[C@@H](C(=O)O)C4)cc(C#N)c3o2)c1C [Example 180, cis-3-((7-cyano-2-(3′-(3-(((R)-3-hydroxypyrrolidin-1-yl)methyl)-1,7-naphthyridin-8-ylamino)-2,2′-dimethylbiphenyl-3-yl)benzo [d]oxazol-5-yl)methylamino)cyclobutane carboxylic acid] | ≤ 10 |
| Cc1c(-c2nc3cc(CN4CC[C@@H](C(=O)NS(C)(=O)=O)C4)cc(C#N)c3o2)cccc1-c1cccc(-c2nc3c(s2)CN(C(C)C)CC3)c1C [Example 238, (R)-1-((7-cyano-2-(3′-(5-isopropyl-4,5,6,7-tetrahydrothiazolo[5,4-c]pyridin-2-yl)-2,2′-dimethyl-[1,1′-biphenyl]-3-yl)benzo[d]oxazol-5-yl)methyl)-N-(methylsulfonyl)pyrrolidine-3-carboxamide] | ≤ 10 |
| CCN(C)CC(=O)N1Cc2nc(-c3cccc(-c4cccc(-c5nc6cc(CN7CC[C@@](C)(C(=O)O)C7)cc(C#N)c6o5)c4C)c3C)sc2C1 [Example 218, (R)-1((7-cyano-2-(3′-(5-(2-(ethyl(methyl)amino)acetyl)-5,6-dihydro-4H-pyrrolo[3,4-d]thiazol-2-yl)-2,2′-dimethylbiphenyl-3-yl)benzo[d]oxazol-5-yl)methyl)-3-methylpyrrolidine-3-carboxylic acid] | ≤ 10 |
| Cc1c(-c2nc3c(o2)CN(C(=O)CN(C)C)C3)cccc1-c1cccc(-c2nc3cc(CN4CC(C(=O)O)C4)cc(C#N)c3o2)c1C [Example 123, 1-((7-cyano-2-(3′-(5-(dimethylglycyl)-5,6-dihydro-4H-pyrrolo[3,4-d]oxazol-2-yl)-2,2′-dimethyl-[1,1′-biphenyl]-3-yl)benzo[d]oxazol-5-yl)methyl)azetidine-3-carboxylic acid] | ≤ 10 |
| CCN(C)CC(=O)N1Cc2nc(-c3cccc(-c4cccc(-c5nc6cc(CN7CC[C@@H](C(=O)O)C7)cc(C#N)c6o5)c4C)c3C)sc2C1 [Example 114, (R)-1-((7-cyano-2-(3′-(5-(2-(ethyl(methyl)amino)acetyl)-5,6-dihydro-4H-pyrrolo[3,4-d]thiazol-2-yl)-2,2′-dimethylbiphenyl-3-yl)benzo[d]oxazol-5-yl)methyl)pyrrolidine-3-carboxylic acid] | ≤ 10 |
| Cc1c(-c2nc3c(o2)CN(C(=O)CN2CCC(O)CC2)C3)cccc1-c1cccc(-c2nc3cc(CN4CC[C@@](C)(C(=O)O)C4)cc(C#N)c3o2)c1C [Example 249, (R)-1-((7-cyano-2-(3′-(5-(2-(4-hydroxypiperidin-1-yl)acetyl)-5,6-dihydro-4H-pyrrolo[3,4-d]oxazol-2-yl)-2,2′-dimethyl-[1,1′-biphenyl]-3-yl)benzo[d]oxazol-5-yl)methyl)-3-methylpyrrolidine-3-carboxylic acid] | ≤ 10 |
| Cc1c(Nc2nccc3cc(CN4CC[C@@H](O)C4)cnc23)cccc1-c1cccc(-c2nc3cc(CN4CC[C@@H](C(=O)O)C4)cc(C#N)c3o2)c1Cl [Example 168, (R)-1-((2-(2-chloro-3′-(3-(((R)-3-hydroxypyrrolidin-1-yl)methyl)-1,7-naphthyridin-8-ylamino)-2′-methylbiphenyl-3-yl)-7-cyanobenzo[d]oxazol-5-yl)methyl)pyrrolidine-3-carboxylic acid] | ≤ 10 |
| CNC(=O)[C@@H]1CCN(Cc2cc(C#N)c3oc(-c4cccc(-c5cccc(-c6nc7c(s6)CN(C(C)C)CC7)c5C)c4C)nc3c2)C1 [Example 117, (R)-1-((7-cyano-2-(3′-(5-isopropyl-4,5,6,7-tetrahydrothiazolo[5,4-c]pyridin-2-yl)-2,2′-dimethyl-[1,1′-biphenyl]-3-yl)benzo[d]oxazol-5-yl)methyl)-N-methylpyrrolidine-3-carboxamide] | ≤ 10 |
| Cc1c(Nc2nccc3cc(CNCCO)cnc23)cccc1-c1cccc(-c2nc3cc(CNCCC(=O)O)cc(Cl)c3o2)c1C [Example 6, 3-(((7-chloro-2-(3′-((3-(((2-hydroxyethyl)amino)methyl)-1,7-naphthyridin-8-yl)amino)-2,2′-dimethyl-[1,1′-biphenyl]-3-yl)benzo[d]oxazol-5-yl)methyl)amino)propanoic acid] | ≤ 10 |
| Cc1c(-c2nc3cc(CN4CCC(C(=O)O)CC4)cc(C#N)c3o2)cccc1-c1cccc(NC(=O)c2nc3c(n2C)CCNC3)c1Cl [Example 154, 1-((2-(2′-chloro-2-methyl-3′-(1-methyl-4,5,6,7-tetrahydro-1H-imidazo[4,5-c]pyridine-2-carboxamido)biphenyl-3-yl)-7-cyanobenzo[d]oxazol-5-yl)methyl)piperidine-4-carboxylic acid] | ≤ 10 |
| Cc1c(-c2nc3cc(CNCCO)cc(C#N)c3o2)cccc1-c1cccc(-c2nc3c(s2)CN(C(C)C)CC3)c1C [Example 120, 5-(((2-hydroxyethyl)amino)methyl)-2-(3′-(5-isopropyl-4,5,6,7-tetrahydrothiazolo[5,4-c]pyridin-2-yl)-2,2′-dimethyl-[1,1′-biphenyl]-3-yl)benzo[d]oxazole-7-carbonitrile] | ≤ 10 |
| Cc1c(Nc2nccc3cc(CN4CC[C@H](O)C4)cnc23)cccc1-c1cccc(-c2nc3cc(CNCCC(=O)O)cc(Cl)c3o2)c1C [Example 20, (S)-3-((7-chloro-2-(3′-(3-((3-hydroxypyrrolidin-1-yl)methyl)-1,7-naphthyridin-8-ylamino)-2,2′-dimethylbiphenyl-3-yl)benzo[d]oxazol-5-yl)methylamino)propanoic acid] | ≤ 10 |
| Cc1c(Nc2nccc3cc(CNC[C@H](C)O)cnc23)cccc1-c1cccc(-c2nc3cc(CN4CC[C@@H](C(=O)O)C4)cc(C#N)c3o2)c1C [Example 146, (R)-1-((7-cyano-2-(3′-((3-((((S)-2-hydroxypropyl)amino)methyl)-1,7-naphthyridin-8-yl)amino)-2,2′-dimethyl-[1,1′-biphenyl]-3-yl)benzo[d]oxazol-5-yl)methyl)pyrrolidine-3-carboxylic acid] | ≤ 10 |
